molecular target: T1, Estrogen receptor (Homo sapiens, UniProt P03372); experiment: Antiestrogenic activity at estrogen receptor alpha expressed in yeast cells assessed as inhibition of 17-beta-estradiol-induced beta-galactosidase activity by two hybrid assay; assay type: cell-based
T1 sequence (P03372 whole entry): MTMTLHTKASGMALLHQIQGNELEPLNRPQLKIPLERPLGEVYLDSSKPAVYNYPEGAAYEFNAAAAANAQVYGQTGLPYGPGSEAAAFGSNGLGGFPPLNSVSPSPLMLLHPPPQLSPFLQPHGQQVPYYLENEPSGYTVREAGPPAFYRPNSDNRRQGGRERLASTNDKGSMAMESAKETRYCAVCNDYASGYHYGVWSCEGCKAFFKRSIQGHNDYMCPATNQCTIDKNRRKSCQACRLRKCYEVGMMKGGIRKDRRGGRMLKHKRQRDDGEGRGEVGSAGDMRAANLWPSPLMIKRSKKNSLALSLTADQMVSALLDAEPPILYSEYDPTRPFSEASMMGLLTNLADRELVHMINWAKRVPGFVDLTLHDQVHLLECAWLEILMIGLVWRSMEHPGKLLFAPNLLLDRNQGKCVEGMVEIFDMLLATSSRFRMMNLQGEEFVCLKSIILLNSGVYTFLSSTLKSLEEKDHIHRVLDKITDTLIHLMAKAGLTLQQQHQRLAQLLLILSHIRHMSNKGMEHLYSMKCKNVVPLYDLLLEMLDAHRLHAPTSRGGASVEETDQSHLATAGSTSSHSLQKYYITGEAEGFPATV

| IC50 | Compound |
| --- | --- |
| 18 µM | C=C(C)C(O)Cc1c(O)c(CC=C(C)C)c(O)c2c(=O)c(-c3ccc(O)c(O)c3)coc12 (racemic) |
| 13 µM | CC(C)=CCc1c2c(c3occ(-c4ccc(O)c(O)c4)c(=O)c3c1O)CC(C(C)(C)O)O2 (racemic) [(+/-)-FUROWANIN B] |
| 29 µM | C=C(C)C(O)Cc1c(O)c(CC=C(C)C)c2occ(-c3ccc(O)c(O)c3)c(=O)c2c1O (racemic) [MILLEWANIN G] |

Source: ChEMBL document CHEMBL1157234, “Isoflavonoids with antiestrogenic activity from Millettia pachycarpa” (J Nat Prod, 2006)
